Measurements reported in PubChem BioAssay AID1259407 (Chemical Carcinogenesis Research Information System (CCRIS), 2018).
Activity calls are given as the source filed them. No rule for the calls is given here.

Tested on: CCRIS mutagenicity, Ames/micronucleus/aberration tests
Assay: CCRIS mutagenicity studies

SMILES: C=C1[C@@H](O)[C@@H]2O[C@]3(CC[C@H](/C=C/[C@@H](C)[C@@H]4CC(C)=C[C@@]5(O[C@H](C[C@@](C)(O)C(=O)O)CCC5O)O4)O3)CC[C@H]2O[C@@H]1[C@@H](O)C[C@H](C)[C@H]1O[C@@]2(CCCCO2)CC[C@H]1C (stereo not given in full)
- mutagenic call (End Point: IN VITRO MICRONUCLEUS, Test System: HUMAN PERIPHERAL LYMPHOCYTES, Metabolic Activation: NONE): active; positive
- mutagenic call (End Point: In vitro micronucleus, Test System: Chinese hamster ovary (CHO-K1) cells, Metabolic Activation: None): inactive; negative
- mutagenic call (End Point: In vitro micronucleus, Test System: Chinese hamster ovary (CHO-K1) cells, Metabolic Activation: Rat, Liver, S-9, Phenobarbital and beta-naphthoflavone): active; positive
- mutagenic call (End Point: In vitro micronucleus, Test System: Chinese hamster ovary (CHO-K1) cells, Metabolic Activation: Rat, Liver, S-9, Phenobarbital and beta-naphthoflavone, heat inactivated): inactive; negative
- mutagenic call (End Point: In vitro micronucleus, Test System: Chinese hamster ovary (CHO-K1) cells, Metabolic Activation: Rat, Liver, S-9, Phenobarbital and beta-naphthoflavone, Method: FISH (fluorescein isothiocyanate isomer 1 (FITC)-conjugated peptide nucleic acid probe)): active; positive (dose-dependent increase in percentage of centromer-positive micronucle
- mutagenic call (End Point: In vitro micronucleus, Test System: Human colon carcinoma Caco-2 cells, Metabolic Activation: None): active; positive
- mutagenic call (Test System: AMES SALMONELLA TYPHIMURIUM, Strain/Indicator: TA98, Metabolic Activation: S-9, Method: PREINCUBATION): inactive; negative
- mutagenic call (Test System: AMES SALMONELLA TYPHIMURIUM, Strain/Indicator: TA100, Metabolic Activation: S-9, Method: PREINCUBATION): inactive; negative
- mutagenic call (Test System: CHINESE HAMSTER V-79, Strain/Indicator: V-79 (HGPRT)/6-THIOGUANINE, Metabolic Activation: NONE): active; positive
- mutagenic call (Test System: CHINESE HAMSTER V-79, Strain/Indicator: V-79 (HGPRT)/6-THIOGUANINE, Metabolic Activation: RAT, LIVER, HEPATOCYTES): inactive; negative
